Consider 11 compounds from patent US9663534B2, “Fused bicyclic isoxazolines as inhibitors of cholesterol ester transfer protein” (Merck Sharp & Dohme Corp., priority 2013, dated 2017).

pIC50: −log10 of the molar value. Read-outs that look alike come from different tables or passages of the source.

For assay [1] the following is noted: patients treated with anacetrapib along with baseline statin therapy, compared with just a statin; cited from earlier work.
The target of assay [2] is T1, endogenous CETP from serum (Homo sapiens, UniProt P11597).
T1 construct: yielding a concentration of approximately 15 nM endogenous CETP in the assay; from tissue; host or cells: human serum
T1 sequence (P11597 18-493): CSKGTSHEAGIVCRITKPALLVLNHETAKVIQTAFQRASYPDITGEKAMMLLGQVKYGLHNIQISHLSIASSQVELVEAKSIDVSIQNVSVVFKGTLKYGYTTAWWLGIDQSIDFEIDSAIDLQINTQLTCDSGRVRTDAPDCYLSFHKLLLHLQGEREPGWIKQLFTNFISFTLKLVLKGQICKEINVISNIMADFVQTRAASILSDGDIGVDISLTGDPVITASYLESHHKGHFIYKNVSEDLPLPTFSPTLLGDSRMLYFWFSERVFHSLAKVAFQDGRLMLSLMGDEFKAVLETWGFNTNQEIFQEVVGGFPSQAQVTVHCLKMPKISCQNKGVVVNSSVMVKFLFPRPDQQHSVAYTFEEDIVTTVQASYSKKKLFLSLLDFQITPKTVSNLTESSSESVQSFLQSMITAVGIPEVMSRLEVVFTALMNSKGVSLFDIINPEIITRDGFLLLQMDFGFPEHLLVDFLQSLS
The experiment in a line: RTA assay of CETP-catalyzed CE and TG transfer in 95% human serum (95% RTA). It is filed as biochemical. The note with it: RTA assay in 95% human serum; for pIC50: read-out: IC50 RTA (95% HS); for IC50: read-out: IC50 (nM) RTA with 95% HS.

In the case of `COc1cc(F)c(C(C)C)cc1-c1ccc(C(F)(F)F)cc1CN1C(=O)O[C@H](c2cc(C(F)(F)F)cc(C(F)(F)F)c2)[C@@H]1C` [Anacetrapib], in assay [1], the “decrease of LDL-C” value is recorded as 40% and the “increase of HDL-C” value is 138%.

`COc1ncc(-c2ccc(C(=O)O)cc2C)cc1-c1ccc(C(F)(F)F)cc1[C@@H]1CC[C@@H]2C1=NO[C@@H]2c1cc(C(F)(F)F)cc(C(F)(F)F)c1` [Example 1A, 4-(5-(2-((3S,3aR,6S)-3-(3,5-bis(trifluoromethyl)phenyl)-3a,4,5,6-tetrahydro-3H-cyclopenta[c]isoxazol-6-yl)-4-(trifluoromethyl)phenyl)-6-methoxypyridin-3-yl)-3-methylbenzoic acid]: the pIC50 (as a rule, −log10 of the IC50, conventionally taken in molar units) in assay [2] was 7.15.

On to `COc1ncc(-c2ccc(C(=O)O)cc2C)cc1-c1ccc(C(F)(F)F)cc1[C@H]1CC[C@H]2C1=NO[C@H]2c1cc(C(F)(F)F)cc(C(F)(F)F)c1` [Example 1B, 4-(5-(2-((3R,3aS,6R)-3-(3,5-bis(trifluoromethyl)phenyl)-3a,4,5,6-tetrahydro-3H-cyclopenta[c]isoxazol-6-yl)-4-(trifluoromethyl)phenyl)-6-methoxypyridin-3-yl)-3-methylbenzoic acid], for which the pIC50 in assay [2] is 5.00.

As to `COc1ccc(-c2ccc(C(=O)O)cc2C)cc1-c1cnc(C(F)(F)F)cc1[C@@H]1CC[C@@H]2C1=NO[C@@H]2c1cc(C(F)(F)F)cc(C(F)(F)F)c1` [Example 2A, 3′-(4-((3S,3aR,6S)-3-(3,5-bis(trifluoromethyl)phenyl)-3a,4,5,6-tetrahydro-3H-cyclopenta[c]isoxazol-6-yl)-6-(trifluoromethyl)pyridin-3-yl)-4′-methoxy-2-methyl-[1,1′-biphenyl]-4-carboxylic acid], in assay [2], the pIC50 was 5.80.

Turning to `COc1ccc(-c2ccc(C(=O)O)cc2C)cc1-c1cnc(C(F)(F)F)cc1[C@H]1CC[C@H]2C1=NO[C@H]2c1cc(C(F)(F)F)cc(C(F)(F)F)c1` [Example 2B, 3′-(4-((3R,3aS,6R)-3-(3,5-bis(trifluoromethyl)phenyl)-3a,4,5,6-tetrahydro-3H-cyclopenta[c]isoxazol-6-yl)-6-(trifluoromethyl)pyridin-3-yl)-4′-methoxy-2-methyl-[1,1′-biphenyl]-4-carboxylic acid], the pIC50 in assay [2] was 5.00.

On to `COc1ccc(CCC(=O)O)cc1-c1ccc(C(F)(F)F)cc1[C@@H]1CC[C@@H]2C1=NO[C@@H]2c1cc(C(F)(F)F)cc(C(F)(F)F)c1` [Example 4, 3-[2′-{(3S,3aR,6S)-3-[3,5-bis(trifluoromethyl)phenyl]-3a,4,5,6-tetrahydro-3H-cyclopenta[c]isoxazol-6-yl}-6-methoxy-4′-(trifluoromethyl)biphenyl-3-yl]propanoic acid], for which the IC50 (as a rule, the concentration that inhibits the measured activity by half) in assay [2] turned out to be 3790 nM.

For `COc1ccc(-c2ccc(C(=O)O)cc2C)cc1-c1ccc(C(F)(F)F)cc1[C@@H]1CC[C@@H]2C1=NO[C@@H]2c1cc(C(F)(F)F)cc(C(F)(F)F)c1` [Example 5, 2″-{(3S,3aR,6S)-3-[3,5-bis(trifluoromethyl)phenyl]-3a,4,5,6-tetrahydro-3H-cyclopenta[c]isoxazol-6-yl}-4′-methoxy-2-methyl-4″- (trifluoromethyl)-1,1′:3′,1″- terphenyl-4-carboxylic acid], the IC50 in assay [2] turned out to be 145 nM.

As for `COc1ccc([C@H]2CC[C@H](C(=O)O)CC2)cc1-c1ccc(C(F)(F)F)cc1[C@@H]1CC[C@@H]2C1=NO[C@@H]2c1cc(C(F)(F)F)cc(C(F)(F)F)c1` [Example 6, trans-4-[2′-{(3S,3aR,6S)-3-[3,5-bis(trifluoromethyl)phenyl]-3a,4,5,6-tetrahydro-3H-cyclopenta[c]isoxazol-6-yl}-6-methoxy-4′-(trifluoromethyl)biphenyl-3-yl]cyclohexanecarboxylic acid], the IC50 in assay [2] amounted to 383 nM.

On to `COc1ncc(-c2ccc(C(=O)O)cc2C)cc1-c1ccc(C(F)(F)F)cc1[C@@H]1CC[C@@H]2C1=NO[C@@H]2c1cc(F)cc(C(F)(F)F)c1` [Example 7, 4-(5-(2-((3S,3aR,6S)-3-(3-fluoro-5-(trifluoromethyl)phenyl)-3a,4,5,6-tetrahydro-3H-cyclopenta[c]isoxazol-6-yl)-4-(trifluoromethyl)phenyl)-6-methoxypyridin-3-yl)-3-methylbenzoic acid], for which, in assay [2], the IC50 was determined as 57 nM.

Regarding `COc1ccc(-c2ccc(C(=O)O)cc2C)cc1-c1ccc(C(F)(F)F)cc1[C@@H]1CC[C@@H]2C1=NO[C@@H]2c1cc(F)cc(C(F)(F)F)c1` [Example 8, 2″-((3S,3aR,6S)-3-(3-fluoro-5-(trifluoromethyl)phenyl)-3a,4,5,6-tetrahydro-3H-cyclopenta[c]isoxazol-6-yl)-4′-methoxy-2-methyl-4″- (trifluoromethyl)-[1,1′:3′,1″- terphenyl]-4-carboxylic acid], the IC50 in assay [2] is 36 nM.

As to `COc1ncc(-c2ccc(C(=O)O)cc2C)cc1-c1ccc(C(F)(F)F)nc1[C@@H]1CC[C@@H]2C1=NO[C@@H]2c1cc(C(F)(F)F)cc(C(F)(F)F)c1` [Example 9, 4-[2′-{3-[3,5-bis(trifluoromethyl)phenyl]-3a,4,5,6-tetrahydro-3H-cyclopenta[c]isoxazol-6-yl}-2 methoxy-6′-(trifluoromethyl)-3,3′-bipyridin-5-yl]-3-methylbenzoic acid], in assay [2], the IC50 stood at 287 nM.
